According to patent publication US4822811A, “Carbazole lipoxygenase inhibiting compounds, compositions and use” (Abbott Laboratories, priority 1988, dated 1989):

molecular target: T1, 5-lipoxygenase (Rattus norvegicus, UniProt P12527); assay: Lipoxygenase IC50 Determination (in vitro 5-lipoxygenase inhibition, 20,000xg supernatant from homogenized RBL-1 cells); assay type: biochemical; settings: radiolabelled arachidonic acid, 2% DMSO, triplicate incubations, read-out: In vitro 5-lipoxygenase inhibitory potency IC50
T1 construct: 20,000xg supernatant from 6×10^4 homogenized RBL-1 cells; endogenous in cells; host or cells: RBL-1 cells (20,000xg supernatant of homogenate)
T1 sequence (P12527 1-673): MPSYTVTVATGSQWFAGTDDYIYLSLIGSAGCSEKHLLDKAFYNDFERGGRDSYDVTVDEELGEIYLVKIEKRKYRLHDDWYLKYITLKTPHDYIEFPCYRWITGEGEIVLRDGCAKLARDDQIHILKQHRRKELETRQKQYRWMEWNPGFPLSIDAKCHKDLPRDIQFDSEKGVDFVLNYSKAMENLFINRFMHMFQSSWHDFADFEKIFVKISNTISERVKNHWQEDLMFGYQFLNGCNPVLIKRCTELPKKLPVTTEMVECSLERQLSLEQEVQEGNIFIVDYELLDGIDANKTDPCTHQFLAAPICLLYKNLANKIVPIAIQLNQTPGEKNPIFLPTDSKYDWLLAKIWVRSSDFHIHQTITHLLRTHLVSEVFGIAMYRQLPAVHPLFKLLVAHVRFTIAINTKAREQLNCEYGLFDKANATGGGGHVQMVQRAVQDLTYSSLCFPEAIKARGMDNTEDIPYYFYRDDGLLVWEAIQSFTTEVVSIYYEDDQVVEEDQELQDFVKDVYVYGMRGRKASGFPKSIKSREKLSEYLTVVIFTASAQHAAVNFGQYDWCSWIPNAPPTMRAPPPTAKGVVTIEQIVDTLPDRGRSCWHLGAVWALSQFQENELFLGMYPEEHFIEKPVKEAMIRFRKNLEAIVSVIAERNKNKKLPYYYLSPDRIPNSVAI
Description: Lipoxygenase IC50 Determination
Assays to determine 5-lipoxygenase activity were performed in […] incubations containing the 20,000xg supernatant from 6×10^4 homogenized RBL-1 cells, 2% DMSO vehicle and various concentrations of the test compound. Reactions were initiated by addition of radiolabelled arachidonic acid and terminated by acidification and ether extraction. Reaction products were separated from nonconverted substrate by thin layer chromatography and measured by liquid scintillation spectroscopy. All treatments were evaluated in triplicate incubations. Inhibition of 5-lipoxygenase activity was computed by comparison of the quantity of products formed in the treatment incubations to the mean product formation in vehicle control groups (n=8). IC50 values and 95% confidence limits were computed by linear regression analysis of percentage inhibition versus log inhibitor concentration plots. The results of the assay indicate that the compounds are inhibitors of 5-lipoxygenase.

IC50	Compound
290 nM	CC(=O)N(O)C(C)c1ccc2oc3ccccc3c2c1 (stereo not drawn) [Example 1]
390 nM	CCn1c2ccccc2c2cc(CN(O)C(=O)NC)ccc21 [Example 4, N-hydroxy-N-(9-ethylcarbaz-3-ylmethyl) N-methyl urea]
380 nM	CCn1c2ccccc2c2cc(C(C)N(O)C(N)=O)ccc21 (stereo not drawn) [Example 5, N-hydroxy-N-[1-(9-ethylcarbaz-3-yl)ethyl] urea]
